Laboratory results taken from paper PMC4645181, “Spontaneous membrane-translocating peptides: influence of peptide self-aggregation and cargo polarity” (Scientific Reports, 2015).
Where “and” joins values, the source holds several entries; their conditions need not be identical. Identical values can stand only once. Where a SMILES comes first, the peptide text is derived from it. The star is where a group is joined. X2 = CN(C)c1ccc2c(-c3ccc(N4C(=O)CC(*)C4=O)cc3C(=O)[O-])c3ccc(=[N+](C)C)cc-3oc2c1; X1 = CCOC(=O)c1cc2cc3c(cc2oc1=O)N(CC(=O)NCCN1C(=O)CC(*)C1=O)C(C)(C)CC3C

What was measured:
[1] = Critical Micelle Concentration by pyrene 1:3 ratio method; type: physicochemical; conditions: water solutions, 25 °C, 5 × 10^−7 μM pyrene, excitation 335 nm, I1 373 nm / I3 385 nm, 0.5-100 μM peptide, center of Boltzmann sigmoid fit
Method: All the peptide solutions were always freshly prepared and dye-labeled peptides were quantified by UV-Vis absorbance. Unlabeled peptides were quantified by amino acidic digestion obtained by the mineralization of a known amount of peptide (5–50 μg) dissolved in 200–500 μl of HCl 6 M, with the following conditions: temperature: 170 °C; time: 20 minutes. Finally, derivatized amino acids were detected by RP-HPLC (Jupiter 4 μm Proteo 90 Å column (250 × 4.6 mm; Phenomenex) with these solvents: water:TFA 100:0.01 v/v (eluent A)/acetonitrile:water:TFA 95:5:0.01 v/v (eluent B), flux 1 ml/min, and their identity was confirmed by electrospray mass spectroscopy. CMC values of peptide and labeled-peptide systems were then determined by the pyrene 1:3 ratio method. Fluorescence emission spectra at 25 °C of unlabeled and labeled peptide water solutions containing 5 × 10^−7 μM pyrene were recorded using an excitation wavelength of 335 nm. The intensities I1 and I3 were measured at the wavelengths corresponding to the first and third vibronic bands of pyrene (373 nm, emission range: 368–378 nm, and 385 nm, emission range: 380–390 nm, respectively). According to literature, the plot of the pyrene 1:3 ratio index as a function of the concentration of the surfactant can be described by a decreasing sigmoid of the Boltzmann type and indicates the transition from the monomeric to the aggregated form of the peptide. Experimental raw data were fitted using the OriginPro8 software, and the center of the sigmoid is identified as the characteristic CMC.

[2] = Dynamic Light Scattering of peptide aggregates; type: physicochemical; conditions: water solutions at 100 μM (above CMC), 25 °C, scattering angle 90°, average of five consecutive measurements
Method: DLS measurements were performed at 25 °C in a 50-μL quartz cuvette on a Zetasizernano ZS DLS (Malvern Instrument) following the manufacturer’s instructions. Water solutions of labeled-peptide at 100 μM were analyzed with a single scattering angle of 90°. Each value reported is the average of five consecutive measurements.

[3] = test system: CHO-K1 cells; test: Cell uptake / translocation by confocal fluorescence microscopy; type: cell-based, Chinese Hamster; conditions: all concentrations tested (0.5-10 μM), serum-free medium, peptide from water stock, 20 min at 37 °C
Method: Homogeneous peptide solutions used for translocation experiments were always freshly prepared. Purified dye-labeled peptides were pre-dissolved in 100–200 μl of water and sonicated for 15 minutes at 25 °C. Then they were quantified by UV-Vis absorbance (concentration ranging between 100 and 200 μM; for ATTO 425 Maleimide: ε436(water) = 45000 cm^−1M^−1, for TAMRA: ε543(water) = 80000 cm^−1M^−1). An appropriate amount from this stock water-solution was diluted in 200–300 μl of serum-free DMEM F-12 growth medium and then administered to cells. Ionic strength was adjusted to physiological values adding the required amount of 10X PBS buffer.
Chinese Hamster Ovary (CHO-K1) and PgsA-745 cells were purchased from ATCC (reference numbers: CCL-61 and CRL-2242, respectively) and grown in DMEM F-12 medium supplemented with 10% of Fetal Bovine Serum (FBS) at 37 °C with 5% CO2, according to manufacturer’s instructions. […]
Confocal imaging experiments were performed with a Leica TCS SP5 SMD inverted confocal microscope (Leica Microsystems) interfaced with a diode laser (Picoquant) for excitation at 405 nm. […] All images and videos collected were analyzed by ImageJ software version 1.440 (NIH Image; http://rsbweb.nih.gov/ij/). […] RICS correlation function was calculated by the SimFCS software, developed at the Laboratory for Fluorescence Dynamics (www.lfd.uci.edu). […]

[4] = test system: CHO-K1 cells; test: WST-8 Cell Viability Assay; type: cell-based, Chinese Hamster
Method: Cytotoxicity of unlabeled peptides and dye-labeled peptides was evaluated by the WST-8 assay. CHO-K1 cell proliferation was evaluated by plating 5 × 10^3 cells per well in 96-well plates. After 24 hours in serum-containing DMEM-F12 medium, the cells were incubated with a serum-free DMEM-F12 solution of unlabeled or dye-labeled peptides for 2 hours at 37 °C. After the incubation, the medium was removed, cells were washed with PBS 1X and incubated for 2 hours at 37 °C with 100 μl of a 10%-solution of WST-8 dissolved in serum-containing DMEM-F12. Absorbance at 450 nm was measured using a multiplate reader (Microplate Reader, GloMax®-Discover and Explorer Systems, Promega). Cell viability was quantitatively determined by comparing peptide-treated cells with untreated cells (as a reference of 100% viability) and cells treated with dimethyl sulfoxide (DMSO) 20% v/v. Reported data represent the average of three independent experiments, in which three wells for each concentration were measured. Error bars represent the standard errors.

[5] = UV absorption of peptide in water after addition from DMSO stock (precipitation); type: physicochemical; conditions: 2μM in water, added directly from DMSO stock, UV absorption versus addition from water solution; consistent with a precipitate
Method: Fig S5: UV absorption spectra of TP2 at 2μM concentration in water, measured upon addition of the peptide directly from DMSO stock solution (blue trace) or from a water solution (black trace). Only this latter procedure yields the expected absorption spectrum (indicated by the dashed black line). […] This in turn is consistent with the formation of a stabilized phase that is not diffusing in solution, but likely under the form of a precipitate.

peptide apparently lost upon direct addition from DMSO to water [5]	Compound	Critical Micelle Concentration (CMC) [1]	hydrodynamic radius (RH) from DLS [2]	uptake mechanism (confocal imaging) [3]	cell viability ([4]; 20 µM)	cell viability ([4]; 30 µM)
	CN(C)c1ccc2c(-c3ccc(N4C(=O)C=CC4=O)cc3C(=O)[O-])c3ccc(N(C)C)cc3[o+]c2c1 [TAMRA, Tetramethylrhodamine-5-maleimide]	~80 µM and 80 ± 14 µM				
	CC[C@H](C)[C@H](NC(=O)[C@H](CC(C)C)NC(=O)[C@@H]1CCCN1)C(=O)N[C@@H](Cc1ccc(O)cc1)C(=O)N[C@@H](CC(C)C)C(=O)N[C@@H](CCCNC(=N)N)C(=O)N[C@@H](CC(C)C)C(=O)N[C@@H](CC(C)C)C(=O)N[C@@H](CCCNC(=N)N)C(=O)NCC(=O)N[C@@H](CSC1CC(=O)N(c2ccc(-c3c4ccc(=[N+](C)C)cc-4oc4cc(N(C)C)ccc34)c(C(=O)[O-])c2)C1=O)C(=O)O (stereo partly drawn) [TM9-TAMRA] (H-PLIYLRLLRGC(X2)-OH; N-terminus and C-terminus assumed)	3.8 ± 0.5 µM	135 ± 14 nm	only endocytosis is present		
	CCOC(=O)c1cc2cc3c(cc2oc1=O)N(CC(=O)NCCN1C(=O)CC(SC[C@H](NC(=O)CNC(=O)[C@H](CCCNC(=N)N)NC(=O)[C@H](CC(C)C)NC(=O)[C@H](CC(C)C)NC(=O)[C@H](CCCNC(=N)N)NC(=O)[C@H](CC(C)C)NC(=O)[C@H](Cc2ccc(O)cc2)NC(=O)[C@@H](NC(=O)[C@H](CC(C)C)NC(=O)[C@@H]2CCCN2)[C@@H](C)CC)C(=O)O)C1=O)C(C)(C)CC3C (stereo partly drawn) [TM9-ATTO 425] (H-PLIYLRLLRGC(X1)-OH)				60%	40%
~60%	PLIYLRLLR-G-QF [TP2]	1.0 ± 0.2 µM	163 ± 6 nm			
